According to patent US4333947A, “Substituted imidazoles and their use” (Farmos-Yhtyma Oy, priority 1980, dated 1982):
Like-named read-outs stand apart in the source and are kept apart here.

What was measured:
[1] = acute toxicity, i.v., female mice of NMRI-Strain; conditions: mouse, in vivo, iv
Method: Acute toxicity was determined by using female mice of NMRI-Strain with an age of about 7 months and weighing 30-40 g. The administration of the test compound was i.v.

[2] = system: all standard bacterial and fungal species; experiment: antimicrobial activity in vitro, agar diffusion method, all standard bacterial and fungal species; assay type: cell-based; conditions: 1000 μg/ml
Method: (§1) The antimicrobial activity was determined in vitro according to a qualitative test for antibacterial and antifungal activity, using the agar diffusion method, against the following standard organisms: Staphylococcus aureus, Streptococcus pyogenes, Escherichia coli, Proteus mirabilis, Pseudomonas aeruginosus, Candida albicans and Aspergillus niger.

[3] = system: Sprague-Dawley rats; experiment: blood pressure and pulse frequency in anesthetized rats of normal weight; assay type: in vivo; conditions: for minimal effective dose: Rattus norvegicus, iv, anesthetized rats, i.v.
Method: The anti-hypertensive properties of the imidazole derivatives of the present invention have been determined according to the following procedure. Sprague-Dawley rats of normal weight were first anesthetized with urethane. After this, the femoral artery was connected by way of a polyethylene tube with a blood pressure transducer. The test substance was then injected into the femoral vein and the blood pressure and the pulse frequency were registered with a recorder.

[4] = system: rats; experiment: diuretic effect in rats, urine output 0-5 hours after i.p. injection; assay type: in vivo
Method: The diuretic effect was studied in rats by collecting the urine output during 0-5 hours after i.p. injection of the compound. Before the test the rats were fasting overnight and got 10 ml water p.o. immediately before the injection.

[5] = system: all other bacterial and fungal species; experiment: antimicrobial activity in vitro, agar diffusion method, all other bacterial and fungal species (than E. coli and Staph. aureus); assay type: cell-based; conditions: 1000 μg/ml
Method: as §1

[6] = system: E. coli; experiment: antibacterial activity in vitro, agar diffusion method, E. coli; assay type: cell-based, Escherichia coli; conditions: 100 μg/ml
Method: as §1

[7] = system: isoprenaline-induced chronotropic and inotropic action in the isolated atrium; experiment: β-blocking activity in vitro, isoprenaline-induced chronotropic and inotropic action in isolated guinea-pig atrium; assay type: cell-based; conditions: Cavia porcellus; 1 μg/ml; read-out: inhibition of isoprenaline-induced chronotropic effect
Method: The β-blocking activity was measured in vitro as follows: The atrium of a guinea-pig was isolated. The inhibiting activity of the compound against isoprenaline-induced chronotropic and inotropic action in the isolated atrium was measured.

[8] = system: Staph. aureus; experiment: antibacterial activity in vitro, agar diffusion method, Staph. aureus; assay type: cell-based, Staphylococcus aureus; conditions: 100 μg/ml
Method: as §1

[9] = system: collagen-induced aggregation of thrombocytes; experiment: antithrombotic activity in vitro, collagen-induced aggregation of thrombocytes; assay type: cell-based; conditions: cow thrombocytes, 10 min incubation
Method: (§2) In a further test the antithrombotic activity was investigated in vitro. The inhibiting activity of the compounds against ADP- and collagen-inducedaggregation of thrombocytes was measured. In the test thrombocytes from a cow was used. To 1.2 ml of plasma containing 250000 thrombocytes/mm^3 were added 50 μl of a solution of the compound to be tested. After 10 min incubation either ADP or collagen was added. The aggregation of the thrombocytes was turbidimetrically determined at λ=605 n m.

[10] = system: ADP-induced aggregation of thrombocytes; experiment: antithrombotic activity in vitro, ADP-induced aggregation of thrombocytes; assay type: cell-based; conditions: cow thrombocytes, 10 min incubation
Method: as §2

[11] = system: Aspergillus niger; experiment: antifungal activity in vitro, agar diffusion method, Aspergillus niger; assay type: cell-based; conditions: 1000 μg/ml
Method: as §1

[12] = system: all the bacterial species; experiment: antibacterial activity in vitro, agar diffusion method, all bacterial species; assay type: cell-based; conditions: 1000 μg/ml
Method: as §1

[13] = system: Candida albicans; experiment: antifungal activity in vitro, agar diffusion method, Candida albicans; assay type: cell-based; conditions: 1000 μg/ml
Method: as §1

[14] = system: fungi; experiment: antifungal activity in vitro, agar diffusion method, fungi; assay type: cell-based, Candida albicans and Aspergillus niger; conditions: 1000 μg/ml
Method: as §1

[15] = system: arachidonic acid induced pulmonary thromboembolism; experiment: antithrombotic activity in vivo, arachidonic acid induced pulmonary thromboembolism in mice; conditions: 10 mg/kg p.o.
Method: The antithrombotic activity was investigated in vivo in mice as follows: The compounds to be tested were administered orally. After this arachidonic acid was given i.v. The inhibiting activity of the test compounds against arachidonic acid induced pulmonary thromboembolism was investigated.

[16] = 1 mg/kg, 20 minutes after administration
[17] = read-out: dose i.v. causing a registrable lowering of the blood pressure
[18] = 300 μg/kg i.v., 20 minutes after administration

In the case of `Clc1cccc(Cl)c1C=Cc1c[nH]cn1` [4-[2-(2',6'-Dichlorophenyl)-ethenyl]-imidazole], the LD50 [1] is reported as 85 mg/kg, the “antimicrobial activity against all standard bacterial and fungal species” value [2] is reported as “active” and the “decrease of pulse frequency” value [3, 16] is reported as 30%. For the same compound, the “lowering of the blood pressure” value [3, 16] was 25%, the “diuretic effect (5h)” value ([4]; 0.005 mg/kg i.p.) was 128% and the “diuretic effect (5h)” value ([4]; 0.05 mg/kg i.p.) was 132%. For the same compound, the “diuretic effect (5h)” value ([4]; 0.5 mg/kg i.p.) was 135%.
For `Cc1cccc(C)c1CCCC=Cc1c[nH]cn1` [4-[5-(2',6'-Dimethylphenyl)-1-pentenyl]-imidazole], the LD50 [1] was 40 mg/kg, the “activity against all other bacterial and fungal species” value [5] was “active” and the “activity against E. coli” value [6] was “active”. The inhibition at 1 µg/mL [7] was 57% and the “activity against Staph. aureus” value [8] was “active”.
With `Cc1cccc(CC=Cc2c[nH]cn2)c1C` [4-[3-(2',3'-Dimethylphenyl)-1-propenyl]-imidazole] the LD50 [1] was 75 mg/kg, the “inhibition of collagen-induced thrombocyte aggregation” value [9] was “completely” and the “decrease of the blood pressure” value ([3]; 0.3-1 mg/kg i.v., 20 minutes after administration) was 20%. For the same compound, the “inhibition of ADP-induced thrombocyte aggregation” value [10] was “clearly”.
For `Cc1[nH]cnc1C=Cc1c(Cl)cccc1Cl` [4-[2-(2',6'-Dichlorophenyl)-ethenyl]-5-methyl-imidazole], the “activity against Aspergillus niger” value [11] was “inactive”, the LD50 [1] was 100 mg/kg and the “activity against all the bacterial species” value [12] was “active”. The “activity against Candida albicans” value [13] was “active”, the “lowering of the blood pressure” value ([3]; 3 mg/kg i.v., 20 minutes after administration) was 30% and the minimal effective dose ([3]; read-out: dose i.v. at which a decrease of pulse frequency was noticed) was 1 mg/kg. The minimal effective dose [3, 17] was 0.3 mg/kg.
For `Cc1[nH]cnc1C=Cc1ccccc1Cl` [4-[2-(2'-Chlorophenyl)-ethenyl]-5-methyl-imidazole], the LD50 [1] was 85 mg/kg, the “activity against all the bacterial species” value [12] was “active” and the inhibition at 1 µg/mL [7] was 67%. The “activity against the fungi” value [14] was “not against the fungi” and the “mice protected from arachidonic acid-induced pulmonary thromboembolism” value [15] was 4 of 5.
In the case of `Cc1cccc(C)c1CC=Cc1c[nH]cn1` [4-[3-(2',6'-Dimethylphenyl)-1-propenyl]-imidazole], the LD50 [1] is reported as 75 mg/kg and the “decrease of the blood pressure” value ([3]; 1-3 mg/kg i.v., 20 minutes after administration) is reported as 20%.
In the case of `Cc1cccc(C)c1/C=C/c1c[nH]cn1` [4-[2-(2',6'-Dimethylphenyl)-ethenyl]-imidazole], the LD50 [1] is reported as 50 mg/kg, the “decrease of pulse frequency” value [3, 18] is reported as 24% and the “reduction of the blood pressure” value [3, 18] is reported as 20%. The minimal effective dose [3, 17] was 0.01 mg/kg.
